# Measurements from PMC7866225, “Microwave-Assisted Synthesis of (Piperidin-1-yl)quinolin-3-yl)methylene)hydrazinecarbothioamides as Potent Inhibitors of Cholinesterases: A Biochemical and In Silico Approach” (Molecules, 2021).
# Legend:
# [1] = target: Acetylcholinesterase (AChE) (Electrophorus electricus, UniProt O42275); experiment: biochemical; conditions: Ellman's method, triplicate; read-out: Acetylcholinesterase (AChE) IC50 ± SEM
# Method: (§1) Modified Ellman’s method was adopted to investigate the inhibitory potential of newly synthesized compounds against cholinesterase enzymes. The assay protocol involved 96-well plates (100 μL per well). Each well contained 20 μL of assay buffer solution, 10 μL of test sample, and 10 μL of 0.5 U/mg of AChE (for AChE inhibition assay) or 10 μL of 3.4 U/mg of BChE (for BChE inhibition assay). This mixture was incubated at 25 °C for 10 min followed by the addition of substrate (10 μL). For AChE inhibition assay, acetylthiocholine iodide (ATCI, 1 mM) while for BChE assay, butyrylthiocholine chloride (BTCCl, 1 mM), was added. This mixture was incubated for 15 min at 37 °C. Ellman reagent (5,5′-dithio-bis(2-nitrobenzoic acid), DTNB, 3 mM) was added. […] Blank assay was also performed. All the analyses were performed in triplicate. IC50 values were also calculated for the synthesized compounds in GraphPad prism 5.0. using nonlinear regression method.
# [2] = target: Butyrylcholinesterase (BChE) (Equus caballus, UniProt P81908); experiment: biochemical; conditions: Ellman's method, triplicate; read-out: Butyrylcholinesterse (BChE) IC50 ± SEM
# Sequence of Butyrylcholinesterase (BChE) (P81908 whole entry): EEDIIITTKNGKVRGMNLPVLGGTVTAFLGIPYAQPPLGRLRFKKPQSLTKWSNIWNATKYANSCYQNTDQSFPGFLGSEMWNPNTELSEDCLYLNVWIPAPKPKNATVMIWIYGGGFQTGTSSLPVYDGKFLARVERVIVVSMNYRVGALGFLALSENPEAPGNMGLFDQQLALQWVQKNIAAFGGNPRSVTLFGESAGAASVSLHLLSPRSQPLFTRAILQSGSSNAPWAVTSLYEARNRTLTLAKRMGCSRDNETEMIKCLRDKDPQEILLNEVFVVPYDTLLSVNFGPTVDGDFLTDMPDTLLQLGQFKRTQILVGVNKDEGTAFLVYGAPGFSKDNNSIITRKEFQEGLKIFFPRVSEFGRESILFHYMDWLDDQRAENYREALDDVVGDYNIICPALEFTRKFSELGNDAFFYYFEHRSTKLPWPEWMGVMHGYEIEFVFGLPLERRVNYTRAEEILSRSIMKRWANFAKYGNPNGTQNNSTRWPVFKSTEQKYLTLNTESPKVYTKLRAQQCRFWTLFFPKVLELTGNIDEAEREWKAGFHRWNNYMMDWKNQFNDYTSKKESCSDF
# Method: as §1
# [3] = In vitro cytotoxicity, MTT assay; assay type: cell-based; conditions: human, HepG2 cells, 24 h, control = 100, read-out: Cell Viability; for viability at 24 h, 50 μg/mL: HepG2, 50 μg/mL; for viability at 24 h, 100 μg/mL: HepG2, 100 μg/mL; for viability at 24 h, 200 μg/mL: HepG2, 200 μg/mL; for viability at 24 h, 500 μg/mL: HepG2, 500 μg/mL; for viability at 24 h, 1000 μg/mL: HepG2, 1000 μg/mL
# Method: (§2) HepG2 cell line was obtained from the cell culture laboratory established in The University of Lahore. These cell lines were preserved in cryo vials present in liquid nitrogen. Cryo vials were revived for further processing.
# (§3) The cryo vials obtained from liquid nitrogen cylinder were thawed. Then HepG2 cells were cultured in the culturing flask in which DMEM-HG along with 10% fetal bovine serum (FBS), supplemented with […] (Sigma) and 100 U/mL streptomycin (Sigma) were added. Cultures were maintained in a humidified incubator supplied with 5% CO2 at 37 °C. Experiments were performed in triplicates. When cultured HepG2 cells achieved 70–80% confluence their subculturing was conducted. For splitting, the cells attached to the walls of the culturing flask were washed with 1× phosphate buffer saline (PBS) and incubated with 0.05% trypsin-EDTA until cells detached from the surface of culturing flask. The detachment of the cells was confirmed by observing the flask under the inverted microscope. A few drops of FBS were added to the flask and mixed well by stirring. The mixture was centrifuged at 2000 rpm for 5 min. After centrifugation the supernatant was removed, and pellet was resuspended. HepG2 cells were cultured onto 96-well plates for measurement of cell viability. Treatment was given for both compounds at a concentration of 0–1000 µg/mL for 24 h.
# (§4) After 4 h formazan crystals were solubilized with 10% sodium dodecylsulphate (SDS) (Invitrogen Inc.) and absorbance was taken at 570 nm. Percentage viability was calculated according to the following formula:% Viable cells = ((abs sample − abs blank) / (abs control − abs blank)) × 100 (1) where abs stands for absorbance.
# HepG2 cells = experiment: In vitro cytotoxicity, MTT assay; assay type: cell-based; conditions: for Status: HepG2, MTT, 0–1000 µg/mL, 24 h
# Method: as §2, §3, §4
# Sequence of Acetylcholinesterase (AChE) (O42275 24-633): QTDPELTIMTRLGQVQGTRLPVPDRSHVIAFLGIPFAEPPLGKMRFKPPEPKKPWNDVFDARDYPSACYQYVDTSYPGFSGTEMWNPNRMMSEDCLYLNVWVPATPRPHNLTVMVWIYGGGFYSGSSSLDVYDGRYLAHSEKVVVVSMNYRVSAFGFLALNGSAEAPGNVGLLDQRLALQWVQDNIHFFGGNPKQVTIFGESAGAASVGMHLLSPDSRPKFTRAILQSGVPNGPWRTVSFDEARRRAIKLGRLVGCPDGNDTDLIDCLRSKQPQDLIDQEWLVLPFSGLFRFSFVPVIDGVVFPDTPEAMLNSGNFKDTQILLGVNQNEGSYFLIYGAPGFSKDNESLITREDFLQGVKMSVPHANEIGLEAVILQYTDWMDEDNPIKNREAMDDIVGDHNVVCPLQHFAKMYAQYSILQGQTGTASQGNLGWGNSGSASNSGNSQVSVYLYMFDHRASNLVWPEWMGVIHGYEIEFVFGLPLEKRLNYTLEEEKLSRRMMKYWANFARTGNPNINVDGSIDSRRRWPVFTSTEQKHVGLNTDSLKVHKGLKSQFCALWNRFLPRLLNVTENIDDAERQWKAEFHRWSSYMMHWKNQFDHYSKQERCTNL
smiles,measurement,setting,value
"Cc1ccc2nc(N3CCCCC3)c(C=NNC(N)=S)cc2c1 [Compound 5a, 2-((6-Methyl-2-(piperidin-1-yl)quinolin-3-yl)methylene)hydrazinecarbothioamide]",IC50,[1],27.6 ± 0.08 µM
same,IC50,[2],35.3 ± 0.01 µM
same,"viability at 24 h, 50 μg/mL",[3],95.4%
same,"viability at 24 h, 100 μg/mL",[3],88.9%
same,"viability at 24 h, 200 μg/mL",[3],92.8%
same,"viability at 24 h, 500 μg/mL",[3],95.8%
same,"viability at 24 h, 1000 μg/mL",[3],102%
same,Status,HepG2 cells,Non-cytotoxic
"Cc1ccc2nc(N3CCCCC3)c(C=NNC(=S)Nc3ccccc3)cc2c1 [Compound 5b, 2-((6-Methyl-2-(piperidin-1-yl)quinolin-3-yl)methylene)-N-phenylhydrazinecarbothioamide]",IC50,[1],25.1 ± 0.25 µM
same,IC50,[2],33.1 ± 0.09 µM
same,"viability at 24 h, 50 μg/mL",[3],106%
same,"viability at 24 h, 100 μg/mL",[3],107%
same,"viability at 24 h, 200 μg/mL",[3],139%
same,"viability at 24 h, 500 μg/mL",[3],169%
same,"viability at 24 h, 1000 μg/mL",[3],227%
same,Status,HepG2 cells,Proliferative
"Cc1ccc(NC(=S)NN=Cc2cc3cc(C)ccc3nc2N2CCCCC2)c(C)c1 [Compound 5c, N-(2,4-Dimethylphenyl)-2-((6-methyl-2-(piperidin-1-yl)quinolin-3-yl)methylene)hydrazine carbothioamide]",IC50,[1],42.3 ± 0.99 µM
same,IC50,[2],37.2 ± 0.83 µM
same,"viability at 24 h, 50 μg/mL",[3],105%
same,"viability at 24 h, 100 μg/mL",[3],109%
same,"viability at 24 h, 200 μg/mL",[3],122%
same,"viability at 24 h, 500 μg/mL",[3],188%
same,"viability at 24 h, 1000 μg/mL",[3],262%
same,Status,HepG2 cells,Proliferative
"Cc1ccc2nc(N3CCCCC3)c(C=NNC(=S)Nc3c(C)cccc3C)cc2c1 [Compound 5d, N-(2,6-Dimethylphenyl)-2-((6-methyl-2-(piperidin-1-yl)quinolin-3-yl)methylene)hydrazine carbothioamide]",IC50,[1],25.9 ± 0.96 µM
same,IC50,[2],29.8 ± 1.2 µM
same,"viability at 24 h, 50 μg/mL",[3],105%
same,"viability at 24 h, 100 μg/mL",[3],108%
same,"viability at 24 h, 200 μg/mL",[3],110%
same,"viability at 24 h, 500 μg/mL",[3],134%
same,"viability at 24 h, 1000 μg/mL",[3],131%
same,Status,HepG2 cells,Proliferative
"Cc1ccc2nc(N3CCCCC3)c(C=NNC(=S)Nc3ccccc3Cl)cc2c1 [Compound 5e, N-(2-Chlorophenyl)-2-((6-methyl-2-(piperidin-1-yl)quinolin-3-yl)methylene)hydrazine carbothioamide]",IC50,[1],35.2 ± 0.54 µM
same,IC50,[2],40.26 ± 0.17 µM
same,"viability at 24 h, 50 μg/mL",[3],94.2%
same,"viability at 24 h, 100 μg/mL",[3],97.2%
same,"viability at 24 h, 200 μg/mL",[3],158%
same,"viability at 24 h, 500 μg/mL",[3],196%
same,"viability at 24 h, 1000 μg/mL",[3],76.3%
same,Status,HepG2 cells,Cytotoxic
"Cc1ccc2nc(N3CCCCC3)c(C=NNC(=S)Nc3cccc(Cl)c3)cc2c1 [Compound 5f, N-(3-Chlorophenyl)-2-((6-methyl-2-(piperidin-1-yl)quinolin-3-yl)methylene)hydrazine carbothioamide]",IC50,[1],23.9 ± 0.25 µM
same,IC50,[2],24.6 ± 0.57 µM
same,"viability at 24 h, 50 μg/mL",[3],84.8%
same,"viability at 24 h, 100 μg/mL",[3],94.9%
same,"viability at 24 h, 200 μg/mL",[3],93.9%
same,"viability at 24 h, 500 μg/mL",[3],93.2%
same,"viability at 24 h, 1000 μg/mL",[3],56.9%
same,Status,HepG2 cells,Cytotoxic
"Cc1ccc2nc(N3CCCCC3)c(C=NNC(=S)Nc3ccc(Cl)cc3)cc2c1 [Compound 5g, N-(4-Chlorophenyl)-2-((6-methyl-2-(piperidin-1-yl)quinolin-3-yl)methylene)hydrazine carbothioamide]",IC50,[1],19.85 ± 0.14 µM
same,IC50,[2],23.1 ± 0.11 µM
same,"viability at 24 h, 50 μg/mL",[3],84.3%
same,"viability at 24 h, 100 μg/mL",[3],96.4%
same,"viability at 24 h, 200 μg/mL",[3],94.1%
same,"viability at 24 h, 500 μg/mL",[3],122%
same,"viability at 24 h, 1000 μg/mL",[3],135%
same,Status,HepG2 cells,Proliferative
"Cc1ccc2nc(N3CCCCC3)c(C=NNC(=S)Nc3ccccc3F)cc2c1 [Compound 5h, N-(2-Fluorophenyl)-2-((6-methyl-2-(piperidin-1-yl)quinolin-3-yl)methylene)hydrazine carbothioamide]",IC50,[1],31.3 ± 0.37 µM
same,IC50,[2],25.1 ± 0.99 µM
same,"viability at 24 h, 50 μg/mL",[3],113%
same,"viability at 24 h, 100 μg/mL",[3],121%
same,"viability at 24 h, 200 μg/mL",[3],83.8%
same,"viability at 24 h, 500 μg/mL",[3],151%
same,"viability at 24 h, 1000 μg/mL",[3],209%
same,Status,HepG2 cells,Proliferative
"Cc1ccc2nc(N3CCCCC3)c(C=NNC(=S)Nc3cccc(F)c3)cc2c1 [Compound 5i, N-(3-Fluorophenyl)-2-((6-methyl-2-(piperidin-1-yl)quinolin-3-yl)methylene)hydrazine carbothioamide]",IC50,[1],24.1 ± 0.43 µM
same,IC50,[2],36.23 ± 0.02 µM
same,"viability at 24 h, 50 μg/mL",[3],118%
same,"viability at 24 h, 100 μg/mL",[3],99.4%
same,"viability at 24 h, 200 μg/mL",[3],97.2%
same,"viability at 24 h, 500 μg/mL",[3],99.4%
same,"viability at 24 h, 1000 μg/mL",[3],149%
same,Status,HepG2 cells,Proliferative
"Cc1ccc2nc(N3CCCCC3)c(C=NNC(=S)Nc3ccc(F)cc3)cc2c1 [Compound 5j, N-(4-Fluorophenyl)-2-((6-methyl-2-(piperidin-1-yl)quinolin-3-yl)methylene)hydrazine carbothioamide]",IC50,[1],28.2 ± 0.94 µM
same,IC50,[2],42.4 ± 0.44 µM
same,"viability at 24 h, 50 μg/mL",[3],93.4%
same,"viability at 24 h, 100 μg/mL",[3],98.1%
same,"viability at 24 h, 200 μg/mL",[3],107%
same,"viability at 24 h, 500 μg/mL",[3],138%
same,"viability at 24 h, 1000 μg/mL",[3],166%
same,Status,HepG2 cells,Proliferative
"CCc1ccc(NC(=S)NN=Cc2cc3cc(C)ccc3nc2N2CCCCC2)cc1 [Compound 5k, N-(4-Ethylphenyl)-2-((6-methyl-2-(piperidin-1-yl)quinolin-3-yl)methylene)hydrazine carbothioamide]",IC50,[1],30.6 ± 0.56 µM
same,IC50,[2],32 ± 0.87 µM
same,"viability at 24 h, 50 μg/mL",[3],111%
same,"viability at 24 h, 100 μg/mL",[3],110%
same,"viability at 24 h, 200 μg/mL",[3],99.6%
same,"viability at 24 h, 500 μg/mL",[3],106%
same,"viability at 24 h, 1000 μg/mL",[3],132%
same,Status,HepG2 cells,Proliferative
"Cc1ccc2nc(N3CCCCC3)c(C=NNC(=S)NCc3ccccc3)cc2c1 [Compound 5l, N-Benzyl-2-((6-methyl-2-(piperidin-1-yl)quinolin-3-yl)methylene)hydrazinecarbothioamide]",IC50,[1],35.1 ± 1.2 µM
same,IC50,[2],45.02 ± 0.38 µM
same,"viability at 24 h, 50 μg/mL",[3],101%
same,"viability at 24 h, 100 μg/mL",[3],101%
same,"viability at 24 h, 200 μg/mL",[3],107%
same,"viability at 24 h, 500 μg/mL",[3],109%
same,"viability at 24 h, 1000 μg/mL",[3],133%
same,Status,HepG2 cells,Proliferative
"Cc1ccc2nc(N3CCCCC3)c(C=NNC(=S)NCCN3CCOCC3)cc2c1 [Compound 5m, 2-((6-Methyl-2-(piperidin-1-yl)quinolin-3-yl)methylene)-N-(2-morpholinoethyl)hydrazine carbothioamide]",IC50,[1],62.3 ± 0.68 µM
same,IC50,[2],59.35 ± 0.13 µM
same,"viability at 24 h, 50 μg/mL",[3],94%
same,"viability at 24 h, 100 μg/mL",[3],102%
same,"viability at 24 h, 200 μg/mL",[3],109%
same,"viability at 24 h, 500 μg/mL",[3],107%
same,"viability at 24 h, 1000 μg/mL",[3],115%
same,Status,HepG2 cells,Non-cytotoxic
"Cc1cccc2cc(C=NNC(N)=S)c(N3CCCCC3)nc12 [Compound 6a, 2-((8-Methyl-2-(piperidin-1-yl)quinolin-3-yl)methylene)hydrazinecarbothioamide]",IC50,[1],36.25 ± 0.36 µM
same,IC50,[2],60.02 ± 0.04 µM
same,"viability at 24 h, 50 μg/mL",[3],82.5%
same,"viability at 24 h, 100 μg/mL",[3],86.3%
same,"viability at 24 h, 200 μg/mL",[3],80.6%
same,"viability at 24 h, 500 μg/mL",[3],83.3%
same,"viability at 24 h, 1000 μg/mL",[3],77.9%
same,Status,HepG2 cells,Cytotoxic
"Cc1cccc2cc(C=NNC(=S)Nc3ccccc3)c(N3CCCCC3)nc12 [Compound 6b, 2-((8-Methyl-2-(piperidin-1-yl)quinolin-3-yl)methylene)-N-phenylhydrazinecarbothioamide]",IC50,[1],25.9 ± 0.45 µM
same,IC50,[2],28.8 ± 0.63 µM
same,"viability at 24 h, 50 μg/mL",[3],89.9%
same,"viability at 24 h, 100 μg/mL",[3],95.7%
same,"viability at 24 h, 200 μg/mL",[3],92.8%
same,"viability at 24 h, 500 μg/mL",[3],112%
same,"viability at 24 h, 1000 μg/mL",[3],69.2%
same,Status,HepG2 cells,Cytotoxic
"N.N.[Cl][Pt][Cl] [cisplatin, reference compound]",IC50,"HepG2 cells; HepG2, standard drug",20 µg/mL
